In test [1] the test system is influx of neutrophils to the lung in LPS-challenged rats. Nature of the test: Rat LPS neutrophilia model. The test is classed as in vivo. To be noted: LPS aerosol, lavage 4 hours later, in at least one of the range of conditions tested, significance p<0.05. The protocol: The effect of compounds on the influx of neutrophils to the lung in LPS-challenged rats is evaluated as follows. The test compound is suspended in one of the following solutions: 0.5% tween 80/PBS, 0.5% tween 80/saline, 10% EtOH/saline (with pH adjusted to 2.0, or 8.0 with HCl, or unadjusted), Saline (pH 2.0, 6.5 or 8.0, 0.5% Tragacanth, 1% DMSO/20% Encapsin/Saline, or acidified 5% Tragacanth. The suspension process may be aided by the use of a glass homogenizer. For intratracheal administration, the animals are anesthetized with inhaled isoflurane and placed in a supine position, the trachea is intubated with a steel gavage needle (1.5 inch, 22 gauge, small ball) or a Penn-Century Microsprayer Aerosolizer (model IA-LB) and 200 ul of dosing solution is delivered. The animals are visually monitored during the recovery process, which typically occurs within two minutes.
Rats treated with compound or vehicle (15 min-24 hours pretreatment) are exposed to an LPS aerosol (100 ug/ml) for 15 min. Four hours later the rats are euthanized with pentobarbital (100 mg/kg, i.p.) and the airways are lavaged with 5 washes of 5 ml of phosphate buffered saline. The harvested cells are stained (Diffquick) and counted to determine total and differential cell data. In a typical study, macrophages represent 40-70% of the total cells, and polymorphonuclear cells 30-60% of the total cells. Inhibition of neutrophil levels relative to no compound controls is calculated based on the differential counts.
The assay has varying conditions, such as concentration, pretreat time, form of the compound (crystalline, amorphous, salts, micronised), and a wet or dry application of the compound.
The data is obtained as % inhibition using a particular concentration and pretreat time.

The target in the next test is T1, Recombinant human p38α (Homo sapiens, UniProt Q16539).
T1 construct: GST; made in house
T1 sequence (Q16539 whole entry): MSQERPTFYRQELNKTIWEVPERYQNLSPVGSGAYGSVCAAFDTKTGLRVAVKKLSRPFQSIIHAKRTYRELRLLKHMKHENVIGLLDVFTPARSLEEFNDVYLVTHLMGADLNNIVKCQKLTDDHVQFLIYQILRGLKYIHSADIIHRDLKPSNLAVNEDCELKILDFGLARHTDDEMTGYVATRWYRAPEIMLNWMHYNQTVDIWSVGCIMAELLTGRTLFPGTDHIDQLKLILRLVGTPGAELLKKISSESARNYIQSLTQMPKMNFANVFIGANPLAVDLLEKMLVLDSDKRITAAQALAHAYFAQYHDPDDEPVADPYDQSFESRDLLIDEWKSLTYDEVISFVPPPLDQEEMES
As to the kind of experiment: Fluorescence anisotropy kinase binding assay (standard or low volume). Conditions: 12 nM p38α, 5 nM fluorescent ligand. An excerpt: The concentration of kinase enzyme should preferably be >2×Kf. The concentration of fluorescent ligand required will depend on the instrumentation used, and the fluorescent and physicochemical properties. The concentration used must be lower than the concentration of kinase enzyme, and preferably less than half the kinase enzyme concentration.
The fluorescent ligand is the following compound:
[drawing 329] • which is derived from 5-[2-(4-aminomethylphenyl)-5-pyridin-4-yl-1H-imidazol-4-yl]-2-chlorophenol and rhodamine green. Recombinant human p38α was expressed as a GST-tagged protein. To activate this protein, 3.5 μM unactivated p38α was incubated in 50 mM Tris-HCl pH 7.5, 0.1 mM EGTA, 0.1% 2-mercaptoethanol, 0.1 mM sodium vanadate, 10 mM MgAc, 0.1 mM ATP with 200 nM MBP-MKK6 DD at 30 degrees for 30 mins. Following activation p38α was re-purified and the activity assessed using a standard filter-binding assay. Protocol: All components are dissolved in buffer of composition 62.5 mM HEPES, pH 7.5, 1.25 mM CHAPS, 1 mM DTT, 12.5 mM MgCl2 with final concentrations of 12 nM p38α and 5 nM fluorescent ligand. 30 μl of this reaction mixture is added to wells containing 1 μl of various concentrations of test compound (0.28 nM-16.6 μM final) or DMSO vehicle (3% final) in NUNC 384 well black microtitre plate and equilibrated for 30-60 mins at room temperature. Fluorescence anisotropy is read in Molecular Devices Acquest (excitation 485 nm/emission 535 nm). Definitions: Ki=dissociation constant for inhibitor binding • Kf=dissociation constant for fluorescent ligand binding
The concentration of kinase enzyme should preferably be 2×Kf. The concentration of fluorescent ligand required will depend on the instrumentation used, and the fluorescent and physicochemical properties. The concentration used must be lower than the concentration of kinase enzyme, and preferably less than half the kinase enzyme concentration. The fluorescent ligand is the following compound:
which is derived from 5-[2-(4-aminomethylphenyl)-5-pyridin-4-yl-1H-imidazol-4-yl]-2-chlorophenol and rhodamine green. Recombinant human p38α was expressed as a GST-tagged protein. To activate this protein, 3.5 μM unactivated p38α was incubated in 50 mM Tris-HCl pH 7.5, 0.1 mM EGTA, 0.1% 2-mercaptoethanol, 0.1 mM sodium vanadate, 10 mM MgAc, 0.1 mM ATP with 200 nM MBP-MKK6 DD at 30 degrees for 30 mins. Following activation p38α was re-purified and the activity assessed using a standard filter-binding assay. Protocol: All components are dissolved in buffer of composition 62.5 mM HEPES, pH 7.5, 1.25 mM CHAPS, 1 mM DTT, 12.5 mM MgCl2 with final concentrations of 12 nM p38α and 5 nM fluorescent ligand. […] of this reaction mixture is added to wells containing 0.1 μl of various concentrations of test compound (0.02 nM-25 μM final) or DMSO vehicle (1.7% final) in Greiner low volume 384 well black microtitre plate and equilibrated for 30-60 mins at room temperature. Fluorescence anisotropy is read in Molecular Devices Acquest (excitation 485 nm/emission 535 nm). Definitions: Ki dissociation constant for inhibitor binding • Kf=dissociation constant for fluorescent ligand binding It is noted that there are two assay formats shown above for the Fluorescence anisotropy kinase binding assay. The only difference between these two assays is the volume used and the plate type. […] The results described herein may have been performed in either assay format and are not differentiated as to which.

The subject of test [2] is IL-8 production by human neutrophils. Nature of the test: TNF-stimulated IL-8 production from human neutrophils. The test is classed as cell-based. To be noted: Neutrophil, bound, not more than 50% inhibition at 100 nM, read-out: IC50.
Method: TNF-Stimulated IL-8 Production from Human Neutrophils The effect of test compounds on TNF-stimulated IL8 production by human neutrophils is measured as follows. Neutrophils are prepared from blood obtained from consenting donors, using standard methods. Blood is collected in heparinized syringes and layered over histopaque (30 ml/20 ml). Following centrifugation, the red cell pellet is resuspended in PBS and purified over a dextran gradient. Red blood cells are lysed with water for 40 sec, remaining granulocytes collected by centrifugation and resuspended at 1.5×10̂6 cells/ml. Cells are added (0.5-1 ml) to 48 well plates already containing compound at 1000×final concentration in neat DMSO or 10% DMSO in RPMI1640 with 10% FBS. TNF (final concentration 100 ng/ml) is used as the stimulus. Cells incubated for approximately 20 hrs at 37° C., 5% CO2. Levels of IL-8 in the cell free supernatant are determined by sandwich ELISA, and inhibition relative to a control with DMPO but no compound is calculated.

The results in this text go back to patent US20090239846A1, “Novel Compounds” (Glaxo Group Limited, priority 2005, published 2009).

Where a name gives a salt, the structure may show the parent alone.

Take `CSc1nc(-c2cc(NC(=O)c3ccsc3)ccc2C)c2c(n1)N(c1c(F)cccc1F)C(=O)NC2` [7(c), N-{3-[8-(2,6-Difluorophenyl)-2-(methylthio)-7-oxo-5,6,7,8-tetrahydropyrimido[4,5-d]pyrimidin-4-yl]-4-methylphenyl}-3-thiophenecarboxamide]: the inhibition of neutrophilia entry in test [1] is “inactive”. The “active in the assay (pIC50, p38α binding)” value (from here on “active in the assay”) at Recombinant human p38α is on record as “active”.

Take `Cc1ccc(C(=O)Nc2ccc(F)cc2)cc1-c1nc(NCCN(C)C)nc2c1CNC(=O)N2c1c(F)cccc1F` [8(c), 3-(8-(2,6-difluorophenyl)-2-{[2-(dimethylamino)ethyl]amino}-7-oxo-5,6,7,8-tetrahydropyrimido[4,5-d]-pyrimidin-4-yl)-N-(4-fluorophenyl)-4-methylbenzamide]: in test [1], the inhibition of neutrophilia result is given as “statistically significant inhibition of neutrophilia”. For the same compound, at Recombinant human p38α, the “active in the assay” value is “active”.

Turning to `CSc1nc(-c2cc(NC(=O)c3ccc(C)c(F)c3)ccc2C)c2c(n1)N(c1c(F)cccc1F)C(=O)NC2` [23(c), N-{3-[8-(2,6-difluorophenyl)-2-(methylthio)-7-oxo-5,6,7,8-tetrahydropyrimido[4,5-d]pyrimidin-4-yl]-4-methylphenyl}-3-fluoro-4-methylbenzamide], the inhibition of neutrophilia entry in test [1] is “inactive”. The “active in the assay” value on Recombinant human p38α is recorded as “active”.

Take `CCCNC(=O)c1ccc(C)c(-c2nc(NCCCN(CC)CC)nc3c2CNC(=O)N3c2c(F)cccc2F)c1` [29(c), 3-[2-{[3-(diethylamino)propyl]amino}-8-(2,6-difluorophenyl)-7-oxo-5,6,7,8-tetrahydropyrimido[4,5-d]pyrimidin-4-yl]-4-methyl-N-propylbenzamide]: the inhibition of neutrophilia entry in test [1] is recorded as “statistically significant inhibition of neutrophilia”. For the same compound, the “active in the assay” value on Recombinant human p38α is recorded as “active”.

Regarding `Cc1ccc(C(=O)NC(C)C)cc1-c1nc(N(C)CCCN(C)C)nc2c1CNC(=O)N2c1c(F)cccc1F` [34(d), 3-{8-(2,6-difluorophenyl)-2-[[3-(dimethylamino)propyl](methyl)amino]-7-oxo-5,6,7,8-tetrahydropyrimido[4,5-d]pyrimidin-4-yl}-4-methyl-N-(1-methylethyl)benzamide], the inhibition of neutrophilia entry in test [1] is reported as “statistically nonsignificant inhibition of neutrophilia”. Further, the “active in the assay” value at Recombinant human p38α is given as “active”.

With `Cc1ccc(C(=O)Nc2ccc(F)cc2)cc1-c1nc(N2CCC(N3CCCC3)CC2)nc2c1CNC(=O)N2c1c(F)cccc1F` [86(c), 3-{8-(2,6-difluorophenyl)-7-oxo-2-[4-(1-pyrrolidinyl)-1-piperidinyl]-5,6,7,8-tetrahydropyrimido[4,5-d]pyrimidin-4-yl}-N-(4-fluorophenyl)-4-methylbenzamide], the inhibition of neutrophilia result in test [1] is reported as “statistically nonsignificant inhibition of neutrophilia”. In addition, the “active in the assay” value at Recombinant human p38α is “active”.

For `Cc1ccc(C(=O)Nc2ccc(F)cc2)cc1-c1nc(N2CCC(N3CCCCC3)CC2)nc2c1CNC(=O)N2c1c(F)cccc1F` [87(b), 3-[2-(1,4′-bipiperidin-1′-yl)-8-(2,6-difluorophenyl)-7-oxo-5,6,7,8-tetrahydropyrimido[4,5-d]pyrimidin-4-yl]-N-(4-fluorophenyl)-4-methylbenzamide], the inhibition of neutrophilia entry in test [1] was “statistically nonsignificant inhibition of neutrophilia”. Besides, on Recombinant human p38α, the “active in the assay” value is recorded as “active”.

On to `Cc1ccc(C(=O)Nc2nccs2)cc1-c1nc(NCCN(C)C)nc2c1CNC(=O)N2c1c(F)cccc1F` [118(c), 3-(8-(2,6-difluorophenyl)-2-{[2-(dimethylamino)ethyl]amino}-7-oxo-5,6,7,8-tetrahydropyrimido[4,5-d]pyrimidin-4-yl)-4-methyl-N-1,3-thiazol-2-ylbenzamide], for which the inhibition of neutrophilia result in test [1] is reported as “statistically significant inhibition of neutrophilia”. Besides, the “active in the assay” value at Recombinant human p38α is recorded as “active”.

`CCN(CC)CCCNc1nc(-c2cc(C(=O)O)ccc2C)c2c(n1)N(c1c(F)cccc1F)C(=O)NC2` [228(b), 3-[2-{[3-(diethylamino)propyl]amino}-8-(2,6-difluorophenyl)-7-oxo-5,6,7,8-tetrahydropyrimido[4,5-d]pyrimidin-4-yl]-4-methylbenzoic acid]: the concentration for half-maximal inhibition (IC50) in test [2] is more than 100 nM.

With `Cc1ccc(C(=O)Nc2ccc(F)cc2)cc1-c1nc(N(C)CCN(C)C)nc2c1CNC(=O)N2c1c(F)cccc1F` [Example 32, 3-{8-(2,6-difluorophenyl)-2-[[2-(dimethylamino)ethyl](methyl)amino]-7-oxo-5,6,7,8-tetrahydropyrimido[4,5-d]pyrimidin-4-yl}-N-(4-fluorophenyl)-4-methylbenzamide], in test [1], the inhibition of neutrophilia entry was “statistically nonsignificant inhibition of neutrophilia”. In addition, the “active in the assay” value on Recombinant human p38α is recorded as “active”.

With `CCc1ccc(C(=O)Nc2nccs2)cc1-c1nc(NCCN(C)C)nc2c1CNC(=O)N2c1c(F)cccc1F` [Example 144, 3-(8-(2,6-difluorophenyl)-2-{[2-(dimethylamino)ethyl]amino}-7-oxo-5,6,7,8-tetrahydropyrimido[4,5-d]pyrimidin-4-yl)-4-ethyl-N-1,3-thiazol-2-ylbenzamide trifluoroacetate], the inhibition of neutrophilia entry in test [1] is “statistically significant inhibition of neutrophilia”.

With `Cc1ccc(C(=O)NC(C)C)cc1-c1nc(N2CCCN(C)CC2)nc2c1CNC(=O)N2c1c(F)cccc1F` [Example 179, 3-[8-(2,6-difluorophenyl)-2-(4-methylhexahydro-1H-1,4-diazepin-1-yl)-7-oxo-5,6,7,8-tetrahydropyrimido[4,5-d]pyrimidin-4-yl]-4-methyl-N-(1-methylethyl)benzamide trifluoroacetate], the inhibition of neutrophilia result in test [1] was “statistically nonsignificant inhibition of neutrophilia”.

`Cc1ccc(C(=O)NC(C)C)cc1-c1nc(NC2CCN(Cc3ccccc3)CC2)nc2c1CNC(=O)N2c1c(F)cccc1F` [Example 200, 3-(8-(2,6-difluorophenyl)-7-oxo-2-{[1-(phenylmethyl)-4-piperidinyl]amino}-5,6,718-tetrahydropyrimido[4,5-d]pyrimidin-4-yl)-4-methyl-N-(1-methylethyl)benzamide]: the inhibition of neutrophilia entry in test [1] was “statistically significant inhibition of neutrophilia”.
